{
  "source": "patent US20150368261A1",
  "about": "“CONJUGATES AND SMALL MOLECULES WHICH INTERACT WITH THE CD16A RECEPTOR” (BIOINTEGRATOR LIMITED LIABILITY COMPANY, priority 2013, published 2015)",
  "molecular_target": "CD16a receptor (Homo sapiens, UniProt P08637)",
  "sequence (P08637 17-254)": "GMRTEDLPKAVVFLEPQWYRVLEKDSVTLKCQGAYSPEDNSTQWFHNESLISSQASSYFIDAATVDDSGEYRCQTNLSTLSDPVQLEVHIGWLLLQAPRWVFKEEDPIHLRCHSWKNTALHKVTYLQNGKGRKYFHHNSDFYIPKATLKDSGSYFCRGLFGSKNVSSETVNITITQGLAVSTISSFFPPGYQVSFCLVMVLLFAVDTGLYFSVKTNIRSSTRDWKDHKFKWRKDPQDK",
  "assay": "Enzyme immunoassay (ELISA) for binding of proteins and conjugates with CD16a receptor",
  "settings": "Table 2, interferon alfa and its conjugate (FIG. 17); read-out: Activity (Kd) towards CD16a receptor",
  "protocol": "Determination of conjugate activity towards CD16a receptor. The experiment uses standard materials and equipment for enzyme immunoassay. Into wells of a 96-well plate CD16a was sorbed from a solution of 3.3 μg/ml in PBS in a volume of 75 μl/well. Sorption was carried out at 4° C. during 16 h. CD16a Solution was removed from the plate, wells were filled in with 2% solution of bovine serum albumin (BSA) in PBS-p (150 μl/well). Plates were incubated at 37° C. for 2 h and three times washed with PBS-p (each time by 300 μl/well). Then the wells were filled with solutions of the conjugates in PBSP, 50 μl/well in dilutions from 0.25 to 256 μg/ml. To each dilution of the conjugate three wells corresponded in the plate. In order to control non-specific sorption of samples some wells were filled with […] BSA solution. The plate was incubated 1 h at 37° C. in a shaker for ELISA (rotation speed was 180 rpm). The plate was washed five times with 300 μl/well of PBS-p and filled with a solution of a protein modified with horseradish peroxidase (by 75 μl/well in the working dilution, which is given in the description of immunoconjugate). The plate was incubated for 30 minutes, washed five times with 300 μl/well of PBS-p and filled with a solution of TMB (100 μl/well). […] The optical density in the plate wells was measured at 450 nm at room temperature. […]",
  "data": [
    {"substance": "interferon alfa", "values": [
      {"measurement": "Kd", "value": 230, "unit": "nM"}
    ]}
  ]
}
